“And” between values parts separate entries of the source, which are not always exact repeats. Equal entries are not always repeated. Where two headings read alike, the source gives them in different places.
Target: T1, GK (glucokinase, residues 12-465) (Homo sapiens, UniProt P35557)
T1 construct: I.D. No. 1 corresponds to residues 12-465 of glucokinase; made in house; host or cells: DH10b-T1r E. coli
T1 sequence (P35557 with tags, fused parts or gaps isoform P35557-2): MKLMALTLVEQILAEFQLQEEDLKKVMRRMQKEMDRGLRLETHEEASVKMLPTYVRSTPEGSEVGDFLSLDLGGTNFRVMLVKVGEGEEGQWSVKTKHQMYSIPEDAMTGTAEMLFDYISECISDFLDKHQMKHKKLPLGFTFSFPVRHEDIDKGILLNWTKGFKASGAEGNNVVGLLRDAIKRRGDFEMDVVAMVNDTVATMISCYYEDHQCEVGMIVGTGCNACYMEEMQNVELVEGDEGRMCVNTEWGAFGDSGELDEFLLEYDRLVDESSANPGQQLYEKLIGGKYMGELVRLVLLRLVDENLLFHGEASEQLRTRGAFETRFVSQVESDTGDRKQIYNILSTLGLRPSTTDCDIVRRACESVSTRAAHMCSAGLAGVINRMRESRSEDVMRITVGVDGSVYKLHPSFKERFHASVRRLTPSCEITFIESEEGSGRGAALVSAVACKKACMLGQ
Experiment: enzymatic glucokinase activity assay (ATP consumption, KinaseGlo luminescence)
Type: biochemical
Conditions: 5 μM ATP, 5 mM Glucose, reported as bins; for EC50: read-out: pKact
Method in brief: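 E. coli-expressed recombinant GK purified by two anion-exchange steps. Reaction in 25 mM Hepes pH 7.2, 10 mM MgCl2, 1 mM DTT, 5 μM ATP, 5 mM glucose, 2% DMSO, 60 min at room temperature. ATP consumption quantified by KinaseGlo luminescence; pKact and % ACTmax derived by non-linear curve fitting.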

[1] = Kact = concentration that displays 50% of the maximal increase in GK activity, 60 min, room temperature
[2] = calculated maximal gain in GK enzyme activity at a saturating concentration of the compound, read-out: % ACTmax
[3] = read-out: % ACTmax, calculated maximal gain in GK enzyme activity at a saturating concentration of the compound

Row | SMILES | EC50 [1] | Emax [2] | pKact [1] | % ACTmax (calculated maximal gain in GK enzyme activity at a saturating concentration of the compound) | Emax [3]
1 | Cn1ccc(NC(=O)[C@@H](CC2CCOCC2)n2ncc3c(S(=O)(=O)C4CC4)ccnc32)n1 [Compound 99, (R)-2-(4-(cyclopropylsulfonyl)-1H-pyrazolo[3,4-b]pyridin-1-yl)-N-(1-methyl-1H-pyrazol-3-yl)-3-(tetrahydro-2H-pyran-4-yl)propanamide] | 3980 to 12600 nM | 90 to 100% |  |  | 
2 | O=C(Nc1ncc(Cl)s1)C(CC1CCOCC1)n1ncc2c(S(=O)(=O)C3CC3)cc(F)cc21 (stereo not shown) [Compound 67, N-(5-chlorothiazol-2-yl)-2-(4-(cyclopropylsulfonyl)-6-fluoro-1H-indazol-1-yl)-3-(tetrahydro-2H-pyran-4-yl)propanamide] | ≤ 316 nM | 106 to 110% |  |  | 
3 | O=C(Nc1ncc(F)s1)C(CC1CCOCC1)n1ncc2c(S(=O)(=O)C3CC3)ccc(Cl)c21 (stereo not shown) [Compound 23, 2-(7-chloro-4-(cyclopropylsulfonyl)-1H-indazol-1-yl)-N-(5-flourothiazol-2-yl)-3-(tetrahydro-2H-pyran-4-yl)propanamide] |  |  | ≧6.5 | ≧111% | 
4 | Cc1ccc2c(cnn2C(CC2CCOCC2)C(=O)Nc2cnccn2)c1S(=O)(=O)C1CC1 (stereo not shown) [Compound 157, 2-(4-(cyclopropylsulfonyl)-5-methyl-1H-indazol-1-yl)-N-(pyrazin-2-yl)-3-(tetrahydro-2H-pyran-4-yl)propanamide] | 398 to 1260 nM | ≥ 111% |  |  | 
5 | O=C(Nc1ncc(Cl)s1)C(CC1CCOCC1)n1cc2cc(S(=O)(=O)C3CC3)ccc2n1 (stereo not shown) [Compound 51, N-(5-chlorothiazol-2-yl)-2-(5-(cyclopropylsulfonyl)-2H-indazol-2-yl)-3-(tetrahydro-2H-pyran-4-yl)propanamide] | 398 to 1260 nM | ≥ 111% |  |  | 
6 | NC(=O)c1ccc(NC(=O)[C@@H](CC2CCOCC2)n2ncc3c(S(=O)(=O)C4CC4)cccc32)nc1 [Compound 108, (R)-6-(2-(4-(cyclopropylsulfonyl)-1H-indazol-1-yl)-3-(tetrahydro-2H-pyran-4-yl)propanamido)nicotinamide] | 3980 to 12600 nM |  |  |  | ≥ 111%
7 | O=C(Nc1cnccn1)[C@H](CC1CCOCC1)n1ncc2c(S(=O)(=O)C3CC3)cccc21 [Compound 89, (S)-2-(4-(cyclopropylsulfonyl)-1H-indazol-1-yl)-N-(pyrazin-2-yl)-3-(tetrahydro-2H-pyran-4-yl)propanamide] | 1580 to 3160 nM | 101 to 105% |  |  | 
8 | Cn1ccc(NC(=O)[C@H](CC2CCOCC2)n2ncc3c(S(=O)(=O)C4CC4)cc(C#N)cc32)n1 [Compound 105, (S)-2-(6-cyano-4-(cyclopropylsulfonyl)-1H-indazol-1-yl)-N-(1-methyl-1H-pyrazol-3-yl)-3-(tetrahydro-2H-pyran-4-yl)propanamide] | 398 to 1260 nM and ≤ 316 nM | ≤ 90% |  |  | 
9 | Cn1ccc(NC(=O)[C@H](CC2CCOCC2)n2ncc3c(S(=O)(=O)C4CC4)cncc32)n1 [Compound 159, (S)-2-(4-(cyclopropylsulfonyl)-1H-pyrazolo[3,4-c]pyridin-1-yl)-N-(1-methyl-1H-pyrazol-3-yl)-3-(tetrahydro-2H-pyran-4-yl)propanamide] | 1580 to 3160 nM | 101 to 105% |  |  | 
10 | O=C1CC[C@H](C[C@@H](C(=O)Nc2ncc(F)s2)n2ncc3c(S(=O)(=O)C4CC4)cc(Cl)cc32)C1 [Compound 79, (S)-2-(6-chloro-4-(cyclopropylsulfonyl)-1H-indazol-1-yl)-N-(5-fluorothiazol-2-yl)-3-((R)-3-oxocyclopentyl)propanamide] | ≤ 316 nM | 90 to 100% |  |  | 
11 | COc1ccc2c(cnn2[C@H](CC2CCOCC2)C(=O)Nc2ncc(F)s2)c1S(=O)(=O)C1CC1 [Compound 81, (R)-2-(4-(cyclopropylsulfonyl)-5-methoxy-1H-indazol-1-yl)-N-(5-fluorothiazol-2-yl)-3-(tetrahydro-2H-pyran-4-yl)propanamide] | 3980 to 12600 nM | 101 to 105% |  |  | 
12 | O=C(Nc1ncc(F)s1)[C@H](CC1CCOCC1)n1cc(S(=O)(=O)C2CCCC2)cn1 [Compound 44, (S)-2-(4-(cyclopentylsulfonyl)-1H-pyrazol-1-yl)-N-(5-fluorothiazol-2-yl)-3-(tetrahydro-2H-pyran-4-yl)propanamide] | 398 to 1260 nM | ≥ 111% |  |  | 
13 | O=C(Nc1ncc(F)s1)[C@@H](CC1CCOCC1)n1ncc2c(S(=O)(=O)C3CC3)ccnc21 [Compound 139, (R)-2-(4-(cyclopropylsulfonyl)-1H-pyrazol[3,4-b]pyridin-1-yl)-N-(5-fluorothiazol-2-yl)-3-(tetrahydro-2H-pyran-4-yl)propanamide] | ≥ 15800 nM | 106 to 110% |  |  | 
14 | COc1cc(S(=O)(=O)C2CC2)c2cnn(C(CC3CCOCC3)C(=O)Nc3ncc(F)s3)c2c1 (stereo not shown) [Compound 72, 2-(4-(cyclopropylsulfonyl)-6-methoxy-1H-indazol-1-yl)-N-(5-fluorothiazol-2-yl)-3-(tetrahydro-2H-pyran-4-yl)propanamide] | ≤ 316 nM | ≤ 90% |  |  | 
15 | Cn1ccc(NC(=O)C(CC2CCOCC2)n2ncc3c(S(=O)(=O)C4CC4)cc(Cl)cc32)n1 (stereo not shown) [Compound 101, 2-(6-chloro-4-(cyclopropylsulfonyl)-1H-indazol-1-yl)-N-(1-methyl-1H-pyrazol-3-yl)-3-(tetrahydro-2H-pyran-4-yl)propanamide] | 398 to 1260 nM | 90 to 100% |  |  | 
16 | NC(=O)c1cnc(NC(=O)C(CC2CCCC2)n2cc(S(=O)(=O)C3CC3)cn2)s1 (stereo not shown) [Compound 57] | 3980 to 12600 nM | 101 to 105% |  |  | 
17 | CC(C)(C)S(=O)(=O)c1cnn([C@H](CC2CCOCC2)C(=O)Nc2ncc(F)s2)c1 [Compound 52, (R)-2-(4-(tert-butylsulfonyl)-1H-pyrazol-1-yl)-N-(5-fluorothiazol-2-yl)-3-(tetrahydro-2H-pyran-4-yl)propanamide] | ≥ 15800 nM | 90 to 100% |  |  | 
18 | O=C(Nc1ncc(Cl)s1)[C@@H](CC1CCCC1)n1cc(S(=O)(=O)C2CC2)cn1 [Compound 38, (R)-N-(5-chlorothiazol-2-yl)-3-cyclopentyl-2-(4-(cyclopropylsulfonyl)-1H-pyrazol-1-yl)propanamide] | ≥ 15800 nM | ≥ 111% |  |  | 
19 | Cn1ccc(NC(=O)[C@H](CC2CCOCC2)n2ncc3c(S(=O)(=O)C4CC4)cccc32)n1 [Compound 119] | 398 to 1260 nM |  |  |  | 90 to 100%
20 | Cn1ccc(NC(=O)C(CC2CCOCC2)n2ncc3c(S(=O)(=O)C4CC4)ccnc32)n1 (stereo not shown) [Compound 95, 2-(4-(cyclopropylsulfonyl)-1H-pyrazolo[3,4-b]pyridin-1-yl)-N-(1-methyl-1H-pyrazol-3-yl)-3-(tetrahydro-2H-pyran-4-yl)propanamide] | 1580 to 3160 nM | 101 to 105% |  |  | 
21 | COc1ccc2c(cnn2[C@@H](CC2CCOCC2)C(=O)Nc2cnccn2)c1S(=O)(=O)C1CC1 [Compound 94, (S)-2-(4-(cyclopropylsulfonyl)-5-methoxy-1H-indazol-1-yl)-N-(pyrazin-2-yl)-3-(tetrahydro-2H-pyran-4-yl)propanamide] | ≤ 316 nM | 90 to 100% |  |  | 
22 | O=C(Nc1ncc(F)s1)[C@H](CC1CCOCC1)n1ncc2c(S(=O)(=O)C3CC3)cc(Cl)cc21 [Compound 141, (S)-2-(6-chloro-4-(cyclopropylsulfonyl)-1H-indazol-1-yl)-N-(5-fluorothiazol-2-yl)-3-(tetrahydro-2H-pyran-4-yl)propanamide] | ≤ 316 nM | 90 to 100% |  |  | 
23 | O=C(Nc1ncc(Cl)s1)C(CC1CCOCC1)n1cc2c(S(=O)(=O)C3CC3)cccc2n1 (stereo not shown) [Compound 70, N-(5-chlorothiazol-2-yl)-2-(4-(cyclopropylsulfonyl)-2H-indazol-2-yl)-3-(tetrahydro-2H-pyran-4-yl)propanamide] | 1580 to 3160 nM | 101 to 105% |  |  | 
24 | O=C(Nc1ncc(F)s1)C(CC1CCOCC1)n1ncc2c(S(=O)(=O)C3CC3)cc(F)cc21 (stereo not shown) [Compound 115, 2-(4-(cyclopropylsulfonyl)-6-fluoro-1H-indazol-1-yl)-H-(5-fluorothiazol-2-yl)-3-(tetrahydro-2H-pyran-4-yl)propanamide] | ≤ 316 nM | 106 to 110% |  |  | 
25 | N#Cc1cnc(NC(=O)C(CC2CCOCC2)n2ncc3c(S(=O)(=O)C4CC4)cccc32)s1 (stereo not shown) [Compound 125, N-(5-cyanothiazol-2-yl)-2-(4-(cyclopropylsulfonyl)-1H-indazol-1-yl)-3-(tetrahydro-2H-pyran-4-yl)propanamide] | 1580 to 3160 nM | ≥ 111% |  |  | 
26 | Cn1ccc(NC(=O)C(CC2CCOCC2)n2ncc3c(S(=O)(=O)C4CC4)cc(OC(F)F)cc32)n1 (stereo not shown) [Compound 12, 2-(4-(cyclopropylsulfonyl)-6-(difluoromethoxy)-1H-indazol-1-yl)-N-(1-methyl-1H-pyrazol-3-yl)-3-(tetrahydro-2H-pyran-4-yl)propanamide] | 1580 to 3160 nM | ≤ 90% |  |  | 

From patent publication US8563730B2, “Pyrazole and fused pyrazole glucokinase activators” (Takeda San Diego, Inc., priority 2008, dated 2013)
